Measured values published in patent US6372774B1, “Derivatives of N-phenylpyrazoles” (Rhone-Poulenc Agriculture Ltd., priority 1985, dated 2002).
Values belong to the molecule of their own block, whether it stands above or below them.

Tests used:
[1] = tested on: Megoura viciae (Vetch Aphid); test: Test 3 b): spray of infested tic bean plants, Megoura viciae; format: in vivo; details: for Megoura score/12 50 ppm: Tables 1 and 3, sum of scores 0-3 of 4 replicates; for mortality at 50 ppm: Megoura viciae, read-out: mortality of Megoura viciae; for score from 4 replicates, Megoura viciae: Test 3 method (b), application of 50 ppm, score 0-3 per replicate, maximum 12
Method: (§1) One or more dilutions of the compounds to be tested were made in 50% aqueous acetone.
b) Megoura viciae (Vetch Aphid)
Potted tic bean plants previously infected with mixed stages of Megoura were sprayed to run-off using a laboratory turntable sprayer. Treated plants were held in a greenhouse for 2 days and were assessed for aphid mortality using a scoring system, judging the response in comparison with plants treated with 50% aqueous acetone alone, as controls.

[2] = tested on: Phaedon cochleariae (Mustard Beetle); test: Test 3 a): leaf disc spray test, Phaedon cochleariae larvae; format: in vivo; details: Phaedon cochleariae, foliar; for pest or weed control at 10 ppm: read-out: Phaedon % m 10 ppm; for mortality at 5 ppm: read-out: mortality of larvae of Phaedon cochleariae
From the text: as §1
(§2) a) Test species: Plutella xylostella (Diamond-back Moth) and Phaedon cochleariae (Mustard Beetle)
(§3) Turnip leaf discs were set in agar in petri-dishes and infected with 10 larvae (2nd instar Plutella or 3rd instar Phaedon). Four replicate dishes were assigned to each treatment and were sprayed under a Potter Tower with the appropriate test dilution. Four or five days after treatment the dishes were removed from the constant temperature (25° C.) room in which they had been held and the mean percentage mortalities of larvae were determined.

[3] = tested on: Plutella xylostella (Diamond-back Moth); test: whole plant or invertebrate; format: in vivo; details: foliar; for mortality at 500 ppm: read-out: mortality of larvae of Plutella xylostella
From the text: as §1, §2, §3

SMILES: N#Cc1nn(-c2c(Cl)cc(C(F)(F)F)cc2Cl)c(Br)c1[N+](=O)[O-]
melting point: 147 to 150 °C

SMILES: N#Cc1nn(-c2c(Cl)cc(C(F)(F)F)cc2Cl)c(NC(=O)C(Cl)Cl)c1C#N
melting point: 186 to 187 °C

SMILES: N#Cc1nn(-c2c(Cl)c(F)c(C(F)(F)F)c(F)c2Cl)c(N)c1C#N
melting point: 245 to 247 °C

SMILES: CNc1c(C#N)c(C#N)nn1-c1c(Cl)cc(C(F)(F)F)cc1Cl
melting point: 165 to 166 °C

SMILES: CCNc1c(C#N)c(C#N)nn1-c1c(Cl)cc(C(F)(F)F)cc1Cl
melting point: 245 to 246 °C

SMILES: CN(C)c1c([S+]([O-])C(F)(F)F)c(C#N)nn1-c1c(Cl)cc(C(F)(F)F)cc1Cl (centres unmarked)
melting point: 154 to 161 °C

SMILES: COC=Nc1c(C#N)c(C)nn1-c1c(Cl)cc(C(F)(F)F)cc1Cl [Compound 118, 4-Cyano-1-(2,6-dichloro-4-trifluoromethylphenyl)-3-methyl-5-methoxymethyleneaminopyrazole]
Megoura score/12 50 ppm [1]: 10 | pest or weed control at 10 ppm [2]: 45% | pest or weed control at 500 ppm ([3]; read-out: Plutella % m 500 ppm): 73%

SMILES: N#Cc1c(C(F)(F)C(F)(F)F)nn(-c2c(Cl)cc(C(F)(F)F)cc2Cl)c1N [Compound 127, 5-Amino-4-cyano-1-(2,6-dichloro-4-trifluoromethylphenyl)-3-pentafluoroethylpyrazole]
Megoura score/12 50 ppm [1]: 10 | pest or weed control at 10 ppm [2]: 100% | mortality at 100 ppm ([3]; read-out: Plutella % mortality at 100 ppm): 100%

SMILES: N#Cc1c(C(F)F)nn(-c2c(Cl)cc(C(F)(F)F)cc2Cl)c1N [Compound 129, 5-Amino-1-(2,6-dichloro-4-trifluoromethylphenyl)-4-cyano-3-difluoromethylpyrazole]
mortality at 50 ppm [1]: 100% | score from 4 replicates, Megoura viciae [1]: 12 | pest or weed control at 10 ppm [2]: 100% | mortality at 500 ppm [3]: 100%

SMILES: CCOC=Nc1c(C#N)c(C(F)(F)F)nn1-c1c(Cl)cc(C(F)(F)F)cc1Cl [Compound 135, 4-Cyano-1-(2,6-dichloro-4-trifluoromethylphenyl)-5-ethoxymethyleneamino-3-trifluoromethylpyrazole]
melting point: 160 to 162 °C

SMILES: N#Cc1c(C(F)(F)F)nn(-c2c(Cl)cc(OC(F)(F)F)cc2Cl)c1N [Compound 144, 5-Amino-4-cyano-1-(2,6-dichloro-4-trifluoromethoxyphenyl)-3-trifluoromethylpyrazole]
mortality at 50 ppm [1]: 100% | score from 4 replicates, Megoura viciae [1]: 12 | mortality at 5 ppm [2]: 100% | mortality at 500 ppm [3]: 100%

SMILES: N#Cc1cn(-c2c(Cl)cc(C(F)(F)F)cc2Cl)nc1C(F)(F)F [Compound 150, 4-Cyano-1-(2,6-dichloro-4-trifluoromethylphenyl)-3-trifluoromethylpyrazole]
Megoura score/12 50 ppm [1]: 10 | pest or weed control at 10 ppm [2]: 100% | mortality at 500 ppm [3]: 100%

SMILES: N#Cc1c(C(F)(F)F)nn(-c2c(Cl)cc(C(F)(F)F)cc2Cl)c1I [Compound 151, 4-Cyano-1-(2,6-dichloro-4-trifluoromethylphenyl)-5-iodo-3-trifluoromethylpyrazole]
Megoura score/12 50 ppm [1]: 11 | pest or weed control at 10 ppm [2]: 100% | mortality at 500 ppm [3]: 100%

SMILES: CCOC(=O)c1c(C)nn(-c2c(Cl)cc(C(F)(F)F)cc2Cl)c1N [Compound 162, 5-Amino-1-(2,6-dichloro-4-trifluoromethylphenyl)-3-methyl-4-ethoxycarbonylpyrazole]
melting point: 115 to 118 °C

SMILES: Cc1nn(-c2c(Cl)cc(OC(F)(F)F)cc2Cl)c(N)c1S(C)(=O)=O [Compound 163, 5-Amino-1-(2,6-dichloro-4-trifluoromethoxyphenyl)-4-methanesulphonyl-3-methylpyrazole]
melting point: 180 to 181 °C

SMILES: N#Cc1c(C(F)(F)F)nn(-c2c(Cl)c(F)c(C(F)(F)F)c(F)c2Cl)c1N [Compound 167, 5-Amino-4-cyano-1-(2,6-dichloro-3,5-difluoro-4-trifluoromethylphenyl)-3-trifluoromethylpyrazole]
melting point: 176 to 177 °C

SMILES: CCOC(C)=Nc1c(C#N)c(C)nn1-c1c(Cl)cc(C(F)(F)F)cc1Cl [Compound 168, 4-Cyano-1-(2,6-dichloro-4-trifluoromethylphenyl)-5-(1-ethoxyethylideneamino)-3-methylpyrazole]
melting point: 50 to 53 °C

SMILES: N#Cc1c(C(F)(F)F)nn(-c2c(Cl)cc(C(F)(F)F)cc2Cl)c1SC(F)(F)F [Compound 208, 4-Cyano-1-(2,6-dichloro-4-trifluoromethylphenyl)-3-trifluoromethyl-5-trifluoromethylthiopyrazole]
melting point: 120 to 122 °C

SMILES: C[Si](C)(C)c1c([N+](=O)[O-])c(C(F)(F)F)nn1-c1c(Cl)cc(C(F)(F)F)cc1Cl [Compound 210, 1-(2,6-Dichloro-4-trifluoromethylphenyl)-4-nitro-3-trifluoromethyl-5-trimethylsilylpyrazole]
mortality at 50 ppm [1]: 100% | score from 4 replicates, Megoura viciae [1]: 12 | mortality at 5 ppm [2]: 100% | mortality at 500 ppm [3]: 100%

SMILES: CS(=O)(=O)c1c(C#N)nn(-c2c(Cl)cc(C(F)(F)F)cc2Cl)c1N [Compound 214, 5-Amino-3-cyano-1-(2,6-dichloro-4-trifluoromethylphenyl)-4-methanesulphonylpyrazole]
mortality at 50 ppm [1]: 100% | score from 4 replicates, Megoura viciae [1]: 12 | mortality at 5 ppm [2]: 100% | mortality at 500 ppm [3]: 100%

SMILES: N#Cc1c(C(F)(F)F)nn(-c2c(Cl)cc([S+]([O-])C(F)(F)F)cc2Cl)c1N (centres unmarked) [Compound 219, 5-Amino-4-cyano-1-(2,6-dichloro-4-trifluoromethylsulphinylphenyl)-3-trifluoromethylpyrazole]
mortality at 50 ppm [1]: 100% | score from 4 replicates, Megoura viciae [1]: 12 | mortality at 5 ppm [2]: 100% | mortality at 500 ppm [3]: 100%

SMILES: CCSc1c(C(F)(F)F)nn(-c2c(Cl)cc(C(F)(F)F)cc2Cl)c1N [Compound 228, 5-Amino-1-(2,6-dichloro-4-trifluoromethylphenyl)-4-ethylthio-3-trifluoromethylpyrazole]
mortality at 50 ppm [1]: 100% | score from 4 replicates, Megoura viciae [1]: 12 | mortality at 5 ppm [2]: 100% | mortality at 500 ppm [3]: 100%

Now from value to molecule:

melting point: 116 to 118 °C
SMILES: N#Cc1nn(-c2c(Cl)cc(C(F)(F)F)cc2Cl)c(N)c1SC(F)(F)C(F)Cl (centres unmarked)

melting point: 188 to 189 °C
SMILES: CCC(=O)Nc1c(C#N)c(C#N)nn1-c1c(Cl)cc(C(F)(F)F)cc1Cl

melting point: 147 to 148 °C
SMILES: N#Cc1nn(-c2c(Cl)cc(C(F)(F)F)cc2Cl)c(Br)c1[S+]([O-])C(F)(F)F (centres unmarked)

melting point: 77 to 79 °C
SMILES: CCCOC=Nc1c(C#N)c(C)nn1-c1c(Cl)cc(C(F)(F)F)cc1Cl [Compound 119, 4-Cyano-1-(2,6-dichloro-4-trifluoromethylphenyl)-3-methyl-5-propoxymethyleneaminopyrazole]

melting point: 262 to 263 °C
SMILES: N#Cc1nn(-c2c(F)c(F)c(C(F)(F)F)c(F)c2F)c(N)c1C#N [Compound 126, 5-Amino-3,4-dicyano-1-(2,3,5,6-tetrafluoro-4-trifluoromethylphenyl)pyrazole]

melting point: 139 to 141 °C
SMILES: N#Cc1c(CF)nn(-c2c(Cl)cc(C(F)(F)F)cc2Cl)c1N [Compound 142, 5-Amino-4-cyano-1-(2,6-dichloro-4-trifluoromethylphenyl)-3-fluoromethylpyrazole]

melting point: 242 to 243 °C
SMILES: N#Cc1nn(-c2c(F)c(F)c(C(F)(F)F)c(F)c2Cl)c(N)c1C#N [Compound 157, 5-Amino-1-(2-chloro-3,5,6-trifluoro-4-trifluoromethylphenyl)-3,4-dicyanopyrazole]

melting point: 231 to 232 °C
SMILES: N#Cc1nn(-c2c(Cl)cc(OC(F)(F)F)cc2Cl)c(N)c1C#N [Compound 159, 5-Amino-1-(2,6-dichloro-4-trifluoromethoxyphenyl)-3,4-dicyanopyrazole]

melting point: 202 to 204 °C
SMILES: Cc1nn(-c2c(Cl)cc(C(F)(F)F)cc2Cl)c(N2C(=O)CCC2=O)c1C#N [Compound 169, 4-Cyano-1-(2,6-dichloro-4-trifluoromethylphenyl)-3-methyl-5-succinimidopyrazole]

melting point: 194 to 195 °C
SMILES: CC(=O)Nc1c(S(C)(=O)=O)c(C(F)(F)F)nn1-c1c(Cl)cc(C(F)(F)F)cc1Cl [Compound 170, 5-Acetamido-1-(2,6-dichloro-4-trifluoromethylphenyl)-4-methanesulphonyl-3-trifluoromethylpyrazole]

melting point: 289 to 290 °C
SMILES: N#Cc1nn(-c2c(Cl)cc([N+](=O)[O-])cc2Cl)c(N)c1C#N [Compound 172, 5-Amino-1-(2,6-dichloro-4-nitrophenyl)-3,4-dicyanopyrazole]

melting point: 88 to 90 °C
SMILES: CCOC(=O)N(C)c1c(C#N)c(C(F)(F)F)nn1-c1c(Cl)cc(C(F)(F)F)cc1Cl [Compound 175, 4-Cyano-1-(2,6-dichloro-4-trifluoromethylphenyl)-5-(N-methyl-N-ethoxycarbonylamino)-3-trifluoromethylpyrazole]

melting point: 194 to 195 °C
SMILES: CC(=O)Nc1c([N+](=O)[O-])c(C(F)(F)F)nn1-c1c(Cl)cc(C(F)(F)F)cc1Cl [Compound 192, 5-Acetamido-1-(2,6-dichloro-4-trifluoromethylphenyl)-4-nitro-3-trifluoromethylpyrazole]

melting point: 177 to 179 °C
SMILES: N#Cc1c(C(F)(F)F)nn(-c2c(Cl)cc(C(F)(F)F)cc2Cl)c1C(=O)O [Compound 209, 5-Carboxy-4-cyano-1-(2,6-dichloro-4-trifluoromethylphenyl)-3-trifluoromethylpyrazole]
